Experimental data from patent publication US7615361B2, “Toxicity screening methods” (Ceetox, Inc., priority 2006, dated 2009).
≈ marks a conversion by molar mass, not a printed value. Where two headings read alike, the source gives them in different places.

How the values were obtained:
Intracellular ATP levels = format: cell-based, rat
Method: (§1) One test compound (Compound A) was received as dry powder and evaluated for potential cytotoxicity in a battery of in vitro assays. The compound was tested using both rat cardiomyocytes (CM) from rat neonates and a rat hepatoma (H4IIE) cell line. […] The cell supernatant or the cells themselves were harvested for biochemical analysis. General cytotoxicity was evaluated by monitoring membrane integrity, mitochondrial function, cell proliferation, oxidative stress, and apoptosis. In addition, interaction with P-glycoprotein (PgP) on H4IIE cells and solubility of the test compound were also assessed. The means of each exposure group (n=3-7) were calculated for each assay performed.
Intracellular ATP Levels: Cellular Adenosine triphosphate (ATP) was determined with an assay based on a reaction between ATP+D-luciferin+oxygen catalyzed by luciferase to yield Oxyluciferin+AMP+PPi+CO2+light. The emitted light is proportional to the amount of ATP present. […] In addition, a unique cell lysis reagent inhibits endogenous ATPases and therefore stabilizes cellular ATP by preventing its degradation to ADP. ATP is present in all-living cells and declines rapidly upon cell death. In addition, this assay in combination with the MTT assay provides an indicator of mitochondrial activity and energy status of the cell.
Plates were analyzed immediately or stored at −20° C. until needed. On the day of analysis, the plates were thawed and calibration curve prepared with ATP in the same liquid matrix as samples. ATP was quantified by adding ATP substrate solution and then reading luminescence on a Packard Fusion Luminescence or equivalent plate reader.
Intracellular ATP Levels: ATP levels in treated cells could be determined by using the regression coefficients obtained from the linear regression analysis of the calibration curve. Thus, values could be expressed as pmoles ATP/million cells. Background corrected luminescence was used to determine percent change relative to controls by dividing treated values by control values and multiplying by 100.

[1] = Solubility in culture medium (nephelometry); format: physicochemical
Method: Solubility: The test compounds were prepared in DMSO and the appropriate amounts were then added to complete medium containing 10% bovine serum […] at 37° C. The samples were evaluated using a light scattering technique and a Nephaloskan instrument.
Solubility Assay: The test compounds were prepared in DMSO and the appropriate amounts were then added to complete medium containing 10% bovine serum at 37° C. The samples were evaluated using a light scattering technique and a Nephaloskan instrument.

H4IIE cells = experiment: Predicted Ctox from Tox-Panel; format: cell-based, rat; settings: 24 HR, estimated sustained plasma concentration where toxicity would be expected in vivo
Method: Once all data for a given cluster of assays are received, the data are analyzed to obtain a detailed profile of the compound's toxicity. For example, most conveniently, the data are collated over a dose response range on a single graph. In such an embodiment, the measurement evaluated for each parameter (i.e., each indicator of cell health) at any given concentration is plotted as a percentage of a control measurement obtained in the absence of the compound. However, it should be noted that the data need not be plotted on a single graph, so long as all the parameters are analyzed collectively to yield detailed information of the effects of the concentration of the compound on the different parameters to yield an overall toxicity profile. As set forth below, this overall toxicity profile will facilitate a determination of a plasma concentration Ctox that is predicted to be toxic in vivo. Ctox represents an estimate of the sustained plasma concentration in vivo that would result in toxicity, such as hepatotoxicity or hematopoietic toxicity.
Studies such as these indicate that a preferred concentration for setting Ctox is the highest concentration at which there is no observed effect on any of the indicators being measured in the cluster analysis, especially a 24-hour cluster analysis. […] It will be apparent that 24 hour assays are more time-effective, and consequently, the 24 hour NOEL/Ctox represents a preferred data point to select as Ctox in a CATS assay. It will also be apparent that, with further time studies, it may be possible to select an equally suitable Ctox at other CATS assay time points (e.g., between 24 and 72 hours, or less than 24 hours).
In certain embodiments, the predicting comprises performing concentration response analyses of measurements from at least three separate assays that are employed in the cluster analysis. For example, in the cell health cluster, such predicting will involve monitoring the concentration response effect of the compound on a first health indicator which monitors cellular replication, a second cell health indicator which monitors mitochondrial function, and a third cell health indicator which monitors membrane integrity. Of course, it is understood that fourth, fifth, sixth or more cell health indicators also may be employed. From these concentration response analyses, the highest concentration of the chemical compound at which a measurable toxic effect of the chemical compound is not observable, i.e. NOEL, is determined and the Ctox is identified as the concentration that correlates to the NOEL. In choosing the concentrations of the compound for analysis, one of skill in the art should devise a dose response regimen which is selected to provide an indication of cell health at concentrations of at least two concentration values higher than the Ctox concentration.
The Ctox (H4IIE) value was developed using 24 hr in vitro toxicity data and was validated by retrospectively evaluating compounds across different classes of drugs in 14-day rat studies in which compounds were administered on a daily basis and pharmacokinetic data was available. […] Thus, Ctox values are only determined for the 24 hr in vitro results. The 6 hr toxicity analyses are typically not performed but are beneficial for interpretation of results when compound toxicity is high (e.g., Ctox≦20 μM).

[2] = Intracellular total glutathione (GSH); format: cell-based, rat; settings: rat
Method: as §1
Experimental Protocol: The test compound was provided and stored at 4° C. until needed. Dosing solutions were prepared in complete culture medium. The rat hepatoma (H4IIE) cell line was used as the test system.

[3] = MemTox membrane leakage (AK / α-GST); format: cell-based, rat
Method: as §1
Membrane Leakage (α-Glutathione S-transferase and/or Adenylate Kinase): The presence of Adenylate Kinase (AK) or α-Glutathione S-transferase (α-GST), both enzyme leakage markers, was measured in the culture medium using an activity assay for Adenylate Kinase and/or an ELISA assay for α-GST. At the end of the exposure period, the medium covering the cells in each well was removed and placed into new 96-well plates with appropriate labeling. […] Luminescence (AK) values were measured with a Packard Fusion or equivalent plate reader, and absorbance (α-GST) values were measured with a Packard SpectraCount™ or equivalent reader at 450 nm and reference absorbance at 650 nm.
Membrane Leakage (α-Glutathione S-transferase and/or Adenylate Kinase): Leakage of Adenylate Kinase or α-GST from the cell into the culture medium was determined by collecting the culture medium at the end of the exposure period. Thus, the values measured represent total enzyme leakage lost over the exposure period. The control for 100% dead or maximum enzyme release was based on cells treated with 1 mM digitonin at the time of dosing. Percent dead cells relative to digitonin treated cells was determined and then subtracted from 100% to yield the percent live cells.

[4] = dosing medium with 20% serum, 37° C., CM 24 HR, read-out: Highest Soluble Concentration Tested
[5] = dosing medium with 20% serum, 37° C., H4IIE 24 HR, read-out: Highest Soluble Concentration Tested
[6] = 37 °C, plasma or biological fluid, kinetic from dmso stock, dosing medium with 20% serum, 37° C., CM 24 HR, read-out: Highest Soluble Concentration Tested
[7] = 37 °C, plasma or biological fluid, kinetic from dmso stock, dosing medium with 20% serum, 37° C., H4IIE 24 HR, read-out: Highest Soluble Concentration Tested
[8] = neonatal rat cardiomyocytes, rat cardiomyocytes (CM), 24 HR exposure, read-out: ATP TC50
[9] = dosing (complete culture) medium with 20% serum, plasma or biological fluid, kinetic from dmso stock, dosing medium with 20% serum, 37° C., CM 24 HR, read-out: Highest Soluble Concentration Tested
[10] = H4IIE rat hepatoma cells, H4IIE, 24 HR, read-out: Total GSH TC50
[11] = neonatal rat cardiomyocytes, rat cardiomyocytes (CM), 24 HR exposure, read-out: MemTox TC50
[12] = plasma or biological fluid, kinetic from dmso stock, dosing medium with 20% serum, 37° C., CM 24 HR, read-out: Highest Soluble Concentration Tested

solubility [1, 4] | solubility [1, 5] | SMILES | CC50 at 24 h (Intracellular ATP levels; rat) | Predicted Ctox (H4IIE cells) | CC50 at 24 h ([2]; Total GSH TC50) | CC50 at 24 h ([3]; rat) | also measured
300 µM (≈ 85.9 µg/mL) | 300 µM (≈ 85.9 µg/mL) | Nc1nc(NC2CC2)c2ncn([C@H]3C=C[C@@H](CO)C3)c2n1 [ABACAVIR, abacavir] | 165 µM | 65 µM | 213 µM | > 300 µM | –
– | – | COc1cccc2c1C(=O)c1c(O)c3c(c(O)c1C2=O)C[C@@](O)(C(=O)CO)C[C@@H]3O[C@H]1C[C@H](N)[C@H](O)[C@H](C)O1 [ADRIAMYCIN, Adriamycin] | 6 µM | 1 µM | 28 µM | 7 µM | CC50 at 1 h (Intracellular ATP levels; rat): > 300 µM; CC50 at 3 h (Intracellular ATP levels; rat): 62 µM; CC50 at 6 h (Intracellular ATP levels; rat): 29 µM; solubility ([1]; 37 °C, plasma or biological fluid, kinetic from dmso stock, dosing medium with 20% serum, 37° C., CM 1 HR, read-out: Highest Soluble Concentration Tested): 100 µM (≈ 54.4 µg/mL); solubility ([1]; 37 °C, plasma or biological fluid, kinetic from dmso stock, dosing medium with 20% serum, 37° C., CM 3 HR, read-out: Highest Soluble Concentration Tested): 100 µM (≈ 54.4 µg/mL); solubility ([1]; 37 °C, plasma or biological fluid, kinetic from dmso stock, dosing medium with 20% serum, 37° C., CM 6 HR, read-out: Highest Soluble Concentration Tested): 100 µM (≈ 54.4 µg/mL); solubility [1, 6]: 100 µM (≈ 54.4 µg/mL); solubility [1, 7]: 100 µM (≈ 54.4 µg/mL); solubility ([1]; dosing medium with 20% serum, 37° C., H4IIE 24 HR, listed as DOXORUBICIN, read-out: Highest Soluble Concentration Tested): 300 µM (≈ 163 µg/mL); Predicted Ctox (H4IIE cells; listed as DOXORUBICIN): 7 µM; CC50 at 1 h ([3]; rat): > 300 µM; CC50 at 3 h ([3]; rat): > 300 µM; CC50 at 6 h ([3]; rat): 40 µM
– | – | CC[C@@]1(O)C(=O)OCc2c1cc1n(c2=O)Cc2cc3ccccc3nc2-1 [CAMPTOTHECIN, Camptothecin] | – | 0.1 µM | – | – | CC50 at 24 h (Intracellular ATP levels; [8]): > 300 µM; solubility ([1]; culture medium with 20% serum, 37 °C, plasma or biological fluid, kinetic from dmso stock, culture media containing 20% serum, NRK 6 HR, read-out: Highest Soluble Concentration): 50 µM (≈ 17.4 µg/mL); solubility [1, 9]: 10 µM (≈ 3.48 µg/mL); solubility ([1]; dosing medium (complete culture medium with serum), plasma or biological fluid, kinetic from dmso stock, dosing medium, 37° C., SK-MEL28 24 HR, read-out: Highest Soluble Concentration): 10 µM (≈ 3.48 µg/mL); solubility ([1]; plasma or biological fluid, kinetic from dmso stock, dosing medium, 37° C., HUVEC 24 HR, read-out: Highest Soluble Concentration): 10 µM (≈ 3.48 µg/mL); CC50 at 24 h [2, 10]: 3 µM; CC50 at 24 h [3, 11]: > 300 µM
– | – | COc1cccc2c1C(=O)c1c(O)c3c(c(O)c1C2=O)C[C@@](O)(C(C)=O)C[C@@H]3O[C@H]1C[C@H](N)[C@H](O)[C@H](C)O1 [DAUNORUBICIN, daunorubicin] | 9 µM | 3 µM | – | 4 µM | solubility [1, 12]: 100 µM (≈ 52.8 µg/mL); CC50 at 24 h [2]: 16 µM
300 µM (≈ 137 µg/mL) | 300 µM (≈ 137 µg/mL) | CC(C)Nc1cccnc1N1CCN(C(=O)c2cc3cc(NS(C)(=O)=O)ccc3[nH]2)CC1 [DELAVIRDINE, delavirdine] | 166 µM | 68 µM | 96 µM | 239 µM | –
300 µM (≈ 94.7 µg/mL) | 300 µM (≈ 94.7 µg/mL) | O=C1Nc2ccc(Cl)cc2[C@@](C#CC2CC2)(C(F)(F)F)O1 [EFAVIRENZ, efavirenz] | 75 µM | 58 µM | 170 µM | 69 µM | –
– | – | CC(=O)[C@]1(O)Cc2c(O)c3c(c(O)c2[C@@H](O[C@H]2C[C@H](N)[C@H](O)[C@H](C)O2)C1)C(=O)c1ccccc1C3=O [IDARUBICIN, idarubicin] | 2 µM | 1 µM | 4 µM | < 1 µM | solubility [1, 9]: 20 µM (≈ 9.95 µg/mL)
– | – | Cc1cccc(C)c1OCC(=O)N[C@@H](Cc1ccccc1)[C@@H](O)C[C@H](Cc1ccccc1)NC(=O)[C@H](C(C)C)N1CCCNC1=O [LOPINAVIR, lopinavir] | 72 µM | 60 µM | 99 µM | 76 µM | solubility [1, 6]: 50 µM (≈ 31.4 µg/mL); solubility [1, 7]: 50 µM (≈ 31.4 µg/mL)
– | – | COc1cccc2c1C(=O)c1c(O)c3c(c(O)c1C2=O)C[C@@](O)(C(=O)CO)C[C@@H]3O[C@H]1C[C@H](N)[C@H](O[C@@H]2CCCCO2)[C@H](C)O1 [PIRARUBICIN, pirarubicin] | – | 5 µM | – | – | CC50 at 24 h (Intracellular ATP levels; [8]): 7 µM; solubility [1, 12]: 50 µM (≈ 31.4 µg/mL); CC50 at 24 h [2, 10]: 17 µM; CC50 at 24 h [3, 11]: 6 µM

SMILES | solubility [1, 4] | solubility [1, 5] | CC50 at 24 h (Intracellular ATP levels; rat) | Predicted Ctox (H4IIE cells) | CC50 at 24 h ([2]; Total GSH TC50) | CC50 at 24 h ([3]; rat) | also measured
COc1cccc2c1C(=O)c1c(O)c3c(c(O)c1C2=O)C[C@@](O)(C(=O)CO)C[C@@H]3O[C@H]1C[C@H](N)[C@@H](O)[C@H](C)O1 [EPIRUBICIN, epirubicin] | 300 µM (≈ 163 µg/mL) | – | 19 µM | 8 µM | 52 µM | 35 µM | solubility [1, 7]: 100 µM (≈ 54.4 µg/mL)
O=C1c2c(O)ccc(O)c2C(=O)c2c(NCCNCCO)ccc(NCCNCCO)c21 [MITOXANTRONE, mitoxantrone] | 300 µM (≈ 133 µg/mL) | 300 µM (≈ 133 µg/mL) | 2 µM | 11 µM | 247 µM | 2 µM | –
